Consider 13 molecules from ChEMBL document CHEMBL4706731, “Semisynthetic Derivatives of the Verticillin Class of Natural Products through Acylation of the C11 Hydroxy Group” (ACS Med Chem Lett, 2021).

Common to all, as to assay type: functional, cell-based
Test [1] concerns OVCAR-3. The test is described as follows: Cytotoxicity against human OVCAR-3 cells assessed as inhibition of cell proliferation measured after 72 hrs by CellTiter 96 AQueous One Solution Cell Proliferation assay. To be noted: OVCAR-3, 72 h.
Test [2] has as its system MDA-MB-435. In words: Cytotoxicity against human MDA-MB-435 cells assessed as inhibition of cell proliferation measured after 72 hrs by CellTiter 96 AQueous One Solution Cell Proliferation assay. The following applies: MDA-MB-435, 72 h.
The test system of test [3] is MDA-MB-231. In words: Cytotoxicity against human MDA-MB-231 cells assessed as inhibition of cell proliferation measured after 72 hrs by CellTiter 96 AQueous One Solution Cell Proliferation assay. To be noted: MDA-MB-231, 72 h.

In general, IC50 refers to the concentration at which inhibition is half-maximal. Take `CC[C@@]12SS[C@]3(C(=O)N1C)[C@@H](O)[C@]1([C@@]45c6ccccc6N[C@@H]4N4C(=O)[C@]6(CC)SS[C@]4(C(=O)N6C)[C@H]5OC(=O)NC)c4ccccc4N[C@@H]1N3C2=O`: the figures for the IC50 in test [1], in test [2] and in test [3] were 68 nM, 22 nM and 21 nM, respectively.

`CCCC(=O)O[C@H]1[C@]2([C@@]34c5ccccc5N[C@@H]3N3C(=O)[C@]5(CC)SS[C@]3(C(=O)N5C)[C@H]4O)c3ccccc3N[C@@H]2N2C(=O)[C@]3(CC)SS[C@]12C(=O)N3C`: the concentration for half-maximal inhibition (IC50) was found to be 25 nM in test [1], 19 nM in test [2] and 17 nM in test [3].

`CC[C@@]12SS[C@]3(C(=O)N1C)[C@@H](O)[C@]1([C@@]45c6ccccc6N[C@@H]4N4C(=O)[C@]6(CC)SS[C@]4(C(=O)N6C)[C@H]5OC(=O)C(C)(C)C)c4ccccc4N[C@@H]1N3C2=O`: the 50% inhibitory concentration (IC50) in test [1] amounted to 72 nM; in test [2], 21 nM; in test [3] it was 20 nM.

As to `CC[C@@]12SS[C@]3(C(=O)N1C)[C@@H](O)[C@]1([C@@]45c6ccccc6N[C@@H]4N4C(=O)[C@]6(CC)SS[C@]4(C(=O)N6C)[C@H]5OC(=O)CCC(=O)O)c4ccccc4N[C@@H]1N3C2=O`, the IC50 in test [1] worked out at 133 nM; in test [2] it was 21 nM; in test [3], 13 nM.

For `CC[C@@]12SS[C@]3(C(=O)N1C)[C@@H](O)[C@]1([C@@]45c6ccccc6N[C@@H]4N4C(=O)[C@]6(CC)SS[C@]4(C(=O)N6C)[C@H]5OC(=O)N(C)C)c4ccccc4N[C@@H]1N3C2=O`, the 50% inhibitory concentration (IC50) in test [1] was determined as 19 nM; in test [2] it was 9 nM; in test [3], 12 nM.

Consider `CN1C(=O)[C@]23SS[C@@]1(C)C(=O)N2[C@H]1Nc2ccccc2[C@@]1([C@@]12c4ccccc4N[C@@H]1N1C(=O)[C@]4(C)SS[C@]1(C(=O)N4C)[C@H]2OC(=O)CCC(=O)O)[C@@H]3O`, for which the IC50 is 33 nM in test [1], 9 nM in test [2] and 12 nM in test [3].

In the case of `CC[C@@]12SS[C@]3(C(=O)N1C)[C@@H](O)[C@]1([C@@]45c6ccccc6N[C@@H]4N4C(=O)[C@]6(CC)SS[C@]4(C(=O)N6C)[C@H]5OC(=O)C4CC4)c4ccccc4N[C@@H]1N3C2=O`, the results for the IC50 in test [1], in test [2] and in test [3] were 105 nM, 24 nM and 12 nM, respectively.

On to `CN1C(=O)[C@]23SS[C@@]1(C)C(=O)N2[C@H]1Nc2ccccc2[C@@]1([C@@]12c4ccccc4N[C@@H]1N1C(=O)[C@]4(C)SS[C@]1(C(=O)N4C)[C@H]2O)[C@@H]3O`, for which the values for the concentration for half-maximal inhibition (IC50) in test [1], in test [2] and in test [3] were 36 nM, 18 nM and 23 nM, respectively.

`CC[C@@]12SS[C@]3(C(=O)N1C)[C@@H](O)[C@]1([C@@]45c6ccccc6N[C@@H]4N4C(=O)[C@]6(CC)SS[C@]4(C(=O)N6C)[C@H]5OC(C)=O)c4ccccc4N[C@@H]1N3C2=O`: the results for the IC50 in test [1], in test [2] and in test [3] were 96 nM, 41 nM and 21 nM, respectively.

For `CCOC(=O)O[C@H]1[C@]2([C@@]34c5ccccc5N[C@@H]3N3C(=O)[C@]5(CC)SS[C@]3(C(=O)N5C)[C@H]4O)c3ccccc3N[C@@H]2N2C(=O)[C@]3(CC)SS[C@]12C(=O)N3C`, the 50% inhibitory concentration (IC50) came to 137 nM in test [1], 11 nM in test [2] and 7 nM in test [3].

For `CC(=O)O[C@H]1C(=O)[C@@]2(C)[C@H]([C@H](OC(=O)c3ccccc3)[C@]3(O)C[C@H](OC(=O)[C@H](O)[C@@H](NC(=O)c4ccccc4)c4ccccc4)C(C)=C1C3(C)C)[C@]1(OC(C)=O)CO[C@@H]1C[C@@H]2O` [PACLITAXEL], the concentration for half-maximal inhibition (IC50) came out at 1.8 nM in test [1], 0.3 nM in test [2] and 0.6 nM in test [3].

For `CC[C@@]12SS[C@]3(C(=O)N1C)[C@@H](O)[C@]1([C@@]45c6ccccc6N[C@@H]4N4C(=O)[C@]6(CC)SS[C@]4(C(=O)N6C)[C@H]5O)c4ccccc4N[C@@H]1N3C2=O`, the IC50 was found to be 229 nM in test [1], 44 nM in test [2] and 31 nM in test [3].

For the molecule `CC[C@@]12SS[C@]3(C(=O)N1C)[C@@H](O)[C@]1([C@@]45c6ccccc6N[C@@H]4N4C(=O)[C@]6(CC)SS[C@]4(C(=O)N6C)[C@H]5OS(=O)(=O)c4ccc(F)cc4)c4ccccc4N[C@@H]1N3C2=O`, the IC50 in test [1] is 79 nM; in test [2], 31 nM; in test [3] it was 49 nM.
